Measured values reported in US10376476B2, “Panicein compounds, compositions and uses thereof” (CENTRE NATIONAL DE LA RECHERCHE SCIENTIFIQUE, priority 2014, dated 2019).

What was measured:
[1] = target: T1, mutant Patched G509VD513Y (hPtcVXXXY) expressed in yeasts (Homo sapiens, UniProt Q13635, D513Y/G509V); experiment: Doxorubicin efflux from yeasts (intracellular dxr fluorescence); format: cell-based; conditions: hPtc-YXXXG-yeasts (mutant Patched), 10 μM paniceins, 10 min, 5 mM 2-deoxy-D-glucose
T1 construct: MAP; expressed in transfected cells; host or cells: Saccharomyces cerevisiae K699
T1 sequence (Q13635 1-1447 G509V/D513Y): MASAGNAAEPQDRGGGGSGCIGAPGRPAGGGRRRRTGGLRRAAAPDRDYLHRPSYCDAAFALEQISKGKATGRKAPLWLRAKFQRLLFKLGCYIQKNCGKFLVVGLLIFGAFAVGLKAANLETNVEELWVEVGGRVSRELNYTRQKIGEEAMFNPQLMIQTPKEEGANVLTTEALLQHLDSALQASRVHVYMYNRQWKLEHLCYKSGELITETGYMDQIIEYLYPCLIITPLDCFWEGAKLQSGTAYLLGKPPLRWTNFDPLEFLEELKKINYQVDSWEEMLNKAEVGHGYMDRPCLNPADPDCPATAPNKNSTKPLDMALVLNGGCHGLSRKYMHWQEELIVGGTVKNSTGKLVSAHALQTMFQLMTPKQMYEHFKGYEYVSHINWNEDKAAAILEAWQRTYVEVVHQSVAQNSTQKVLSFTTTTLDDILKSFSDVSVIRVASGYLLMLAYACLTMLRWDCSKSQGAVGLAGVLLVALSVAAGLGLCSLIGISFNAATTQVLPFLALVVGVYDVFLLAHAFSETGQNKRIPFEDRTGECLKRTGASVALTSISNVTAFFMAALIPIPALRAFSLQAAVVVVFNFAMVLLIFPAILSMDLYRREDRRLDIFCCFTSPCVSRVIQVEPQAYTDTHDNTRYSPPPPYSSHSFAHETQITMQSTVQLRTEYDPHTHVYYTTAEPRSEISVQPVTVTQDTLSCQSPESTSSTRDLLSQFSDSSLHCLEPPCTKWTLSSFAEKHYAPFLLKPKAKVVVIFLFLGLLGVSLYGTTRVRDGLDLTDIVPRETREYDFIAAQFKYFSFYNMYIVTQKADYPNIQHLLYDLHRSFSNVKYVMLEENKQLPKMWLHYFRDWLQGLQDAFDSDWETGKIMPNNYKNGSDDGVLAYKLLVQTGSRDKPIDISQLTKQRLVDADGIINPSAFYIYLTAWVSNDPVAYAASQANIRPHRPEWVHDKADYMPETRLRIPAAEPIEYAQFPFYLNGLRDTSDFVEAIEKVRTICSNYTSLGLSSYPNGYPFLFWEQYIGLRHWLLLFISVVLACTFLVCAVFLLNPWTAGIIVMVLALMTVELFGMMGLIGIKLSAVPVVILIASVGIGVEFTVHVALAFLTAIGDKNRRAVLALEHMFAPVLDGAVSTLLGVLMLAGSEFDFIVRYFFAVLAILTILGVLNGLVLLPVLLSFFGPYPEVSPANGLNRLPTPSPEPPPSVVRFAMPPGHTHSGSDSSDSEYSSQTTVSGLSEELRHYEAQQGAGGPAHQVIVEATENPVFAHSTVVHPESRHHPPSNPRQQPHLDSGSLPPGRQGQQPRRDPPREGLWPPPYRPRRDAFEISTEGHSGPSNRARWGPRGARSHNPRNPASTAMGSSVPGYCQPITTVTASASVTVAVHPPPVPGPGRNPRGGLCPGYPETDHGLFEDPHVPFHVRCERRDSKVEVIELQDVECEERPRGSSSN
Method: A. Compound P5 inhibits doxorubicin efflux from melanoma cells MeWo and A375. Cells were grown on cover-slips, incubated for 2 hour at 37° C. with 10 μM doxorubicin and quickly rinsed with phosphate buffer (pH 7.4). One cover-slip of each cell line was immediately fixed for doxorubicin charge control. The other cover-slips were incubated with buffer supplemented with DMSO or 10 μM of compound P5 30 min under gentle shaking and immediately fixed. Dxr intracellular fluorescence was visualized by epifluorescence and analyzed using Image J software on more than 30 cells of 3 different fields for each condition. The results were analyzed using the Student t test in which significance is attained at P<0.05 (**: P<0.005, ***: P<0.0005). B. Paniceins inhibit doxorubicin efflux from Patched-expressing yeasts. Yeasts expressing wild-type Patched (hPtc, in black), mutant Patched G509VD513Y (hPtcVXXXY, in grey), and control yeasts (in white) were incubated in buffer supplemented with 5 mM of 2-deoxy-D-glucose and 10 μM dxr for 2 hours at 4° C. After centrifugation and supernatant removing, one sample was immediately fixed for charge control and the other samples were resuspended in buffer containing 5 mM of 2-deoxy-D-glucose supplemented with DMSO or 10 μM of paniceins 10 minutes at 25° C. with gentle shaking. After centrifugation and supernatant removing, samples were fixed and deposited on coverslips for epifluorescence microscopy observation. Dxr intracellular fluorescence quantification was carried out using Image J software on more than 30 yeasts on 3 different fields for each condition. The results were analyzed using the Student t test in which significance is attained at P<0.05 (*).
On yeasts: Yeasts expressing Patched (hPtc), mutant Patched (hPtcG509VD513Y), or control yeasts were washed with cold water, resuspended at an OD600 of 10 in Hepes-NaOH buffer (pH 7.0) supplemented with 5 mM of 2-deoxy-D-glucose, and incubated with 10 μM doxorubicin for 2 hours at 4° C. in the cold room on a rotating wheel protected from light. Yeasts were centrifuged and the supernatant was removed. One sample was immediately fixed with 4% paraformaldehyde for doxorubicin loading control. The other samples were resuspended in Hepes-NaOH buffer (pH 7.0) containing 5 mM of 2-deoxy-D-glucose supplemented with DMSO or 10 μM of paniceins, and incubated 10 minutes at 20° C. with gentle shaking in a Benchmark Multi-therm shaker protected from light. Samples were centrifuged for 1 minute at 18,000 g, supernatants were removed and yeasts were fixed with 4% paraformaldehyde. 10 μL of each sample were deposited on a coverslip and observed by epifluorescence microscopy using an objective 63x and filters for Alexa 594. Quantification of doxorubicin intracellular fluorescence was carried out using Image J software on more than 30 yeasts on 3 different fields for each condition. The results were analyzed using the Student t test in which significance is attained at P <0.05.
In order to see if Paniceins inhibit dxr efflux through Patched inhibition, inventors compared dxr efflux on yeasts over-expressing human Patched and control yeasts. After loading with dxr, yeasts were centrifuged and fixed for dxr loading control (LC), or resuspended in buffer supplemented with DMSO or paniceins for efflux measurements. After 10 min a 20° C., yeasts were collected, fixed and deposited on cover-slips. 2-deoxy-D-glucose was added in buffer during loading and efflux in order to inhibit ATP-binding cassette (ABC) transporters. Dxr fluorescence intensity of at least 30 yeasts was measured for each experiment. FIGS. 6A and 12A show the mean fluorescence intensity of 3 independent experiments. […] This was confirmed using yeasts over-expressing Patched mutant VXXXY. […] Yeasts over-expressing hPtcVXXXY are less resistance to growth inhibition by dxr than yeasts over-expressing wild-type hPtc (Bidet et al., 2012).

A375 melanoma cells = experiment: Vemurafenib cytotoxicity, viability test using neutral red; format: cell-based, human; conditions: A375, 10 μM panicein A hydroquinone

Row | Compound | Efflux (%) of dxr [1] [%] | increase of vemurafenib cytotoxicity (A375 melanoma cells)
1 | COc1cc(C)c(CC/C(C)=C/Cc2cc(O)ccc2O)c(C)c1C [P5, Panicein A hydroquinone] | 42 | strongly increases
2 | C/C(=C\Cc1cc(O)ccc1O)CCc1c(C)cc(O)c(C=O)c1C [P3, Panicein B3] | 32 | –
3 | Cc1cc(O)c(C=O)c(C)c1CCC1(C)C=Cc2cc(O)ccc2O1 (centres unmarked) [P4, Panicein B2] | 38 | –
4 | C/C(=C\Cc1cc(O)ccc1O)CCc1c(C)c(O)c(O)c(C=O)c1C [P2, Panicein C] | 39 | –
